In PubChem BioAssay AID330 (DTP/NCI, 2004):
Several values for one entry are separate records, joined by “and”; a condition that tells them apart may be missing. Identical values can stand only once. Inconclusive results and toxic doses are left out. The calls were made as follows: active = survival T/C of 150% or more; inactive = T/C below 125% in these data.

System: P388 leukemia ip, CD2F1 mice, survival T/C
Assay: NCI In Vivo Anticancer Drug Screen. Data for tumor model P388 Leukemia (intraperitoneal) in CD2F1 (CDF1) mice
Conditions: endpoint: median survival time, higher = longer survival
How it was run: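 Mice carrying the transplanted tumor received test compound or vehicle. Survival was recorded in each group, and the value is the treated-group measurement divided by that of the vehicle-treated control group.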

[1] = dose: 15.0 mg/kg/injection, schedule: Q01DX005 (ip), vehicle: Klucel (hydroxypropylcellulose) (HPC)
[2] = dose: 30.0 mg/kg/injection, schedule: Q01DX005 (ip), vehicle: Klucel (hydroxypropylcellulose) (HPC)
[3] = dose: 50.0 mg/kg/injection, schedule: Q01DX005 (ip), vehicle: saline with Tween-80
[4] = dose: 100.0 mg/kg/injection, schedule: Q01DX005 (ip), vehicle: saline with Tween-80
[5] = dose: 60.0 mg/kg/injection, schedule: Q01DX005 (ip), vehicle: saline with Tween-80
[6] = dose: 120.0 mg/kg/injection, schedule: Q01DX005 (ip), vehicle: saline with Tween-80
[7] = dose: 240.0 mg/kg/injection, schedule: Q01DX005 (ip), vehicle: saline with Tween-80
[8] = dose: 60.0 mg/kg/injection, schedule: Q01DX005 (ip), vehicle: Klucel (hydroxypropylcellulose) (HPC)
[9] = dose: 120.0 mg/kg/injection, schedule: Q01DX005 (ip), vehicle: Klucel (hydroxypropylcellulose) (HPC)
[10] = dose: 50.0 mg/kg/injection, schedule: Q01DX009 (ip), vehicle: saline with Tween-80

Measured: T/C

O=C1C(N=Nc2ccc(S(=O)(=O)Nc3ccccn3)cc2)C(=O)N(c2ccccc2)C(=S)N1c1ccccc1
inactive: dose: 60.0 mg/kg/injection, schedule: Q01DX005 (ip), vehicle: saline 95 % of control | dose: 120.0 mg/kg/injection, schedule: Q01DX005 (ip), vehicle: saline 104 % of control | dose: 240.0 mg/kg/injection, schedule: Q01DX005 (ip), vehicle: saline 100 % of control

C[C@H]1CC[C@@]2(C)C(CCC(=O)C2(C)O)[C@]1(C)CC(=O)c1ccoc1 (stereo not given in full)
inactive: dose: 3.75 mg/kg/injection, schedule: Q01DX005 (ip), vehicle: Klucel (hydroxypropylcellulose) (HPC) 91 % of control | dose: 7.5 mg/kg/injection, schedule: Q01DX005 (ip), vehicle: Klucel (hydroxypropylcellulose) (HPC) 88 % of control | [1] 88 % of control | [2] 88 % of control

CCOc1ccc(CC)cc1Cc1ccc(OC)cc1
inactive: [3] 108 % of control | [4] 117 % of control | dose: 200.0 mg/kg/injection, schedule: Q01DX005 (ip), vehicle: saline with Tween-80 113 % of control

COc1cc2c(cc1CCCc1cc(OC)c(OC)c(OC)c1)OCO2
inactive: [5] 92 % of control | [6] 89 % of control | [7] 86 % of control

O=C[C@@H](CO)O[C@H](C=O)n1cnc2c(=O)[nH]cnc21
active: dose: 80.0 mg/kg/injection, schedule: Q01DX009 (ip), vehicle: saline 166 % of control and 169 % of control | dose: 150.0 mg/kg/injection, schedule: Q01DX005 (ip), vehicle: saline 171 % of control | dose: 160.0 mg/kg/injection, schedule: Q01DX009 (ip), vehicle: saline 187 % of control and 189 % of control and 209 % of control
inactive: dose: 250.0 mg/kg/injection, schedule: Q01DX005 (ip), vehicle: saline 56 % of control | dose: 320.0 mg/kg/injection, schedule: Q01DX009 (ip), vehicle: saline 100 % of control and 104 % of control

Clc1cc2nc3[nH]c4ccccc4c3nc2cc1Cl
inactive: [1] 93 % of control | [2] 101 % of control | [8] 93 % of control and 98 % of control | [9] 97 % of control

CCCCCCC(=O)/C=C/c1cccc(OCc2ccc([N+](=O)[O-])cc2)c1
inactive: dose: 12.5 mg/kg/injection, schedule: Q01DX009 (ip), vehicle: saline with Tween-80 86 % of control | dose: 25.0 mg/kg/injection, schedule: Q01DX009 (ip), vehicle: saline with Tween-80 89 % of control | [10] 87 % of control and 91 % of control | dose: 200.0 mg/kg/injection, schedule: Q01DX009 (ip), vehicle: saline with Tween-80 88 % of control

COc1ccc(C2=Nn3c(nc(N)nc3=N)SC2)cc1
inactive: dose: 25.0 mg/kg/injection, schedule: Q01DX005 (ip), vehicle: saline with Tween-80 113 % of control | [3] 100 % of control | [4] 96 % of control

CCOc1c(N=Nc2ccc([N+](=O)[O-])cc2)c(C)nn1C(=S)S
inactive: [8] 100 % of control | [9] 95 % of control | dose: 240.0 mg/kg/injection, schedule: Q01DX005 (ip), vehicle: Klucel (hydroxypropylcellulose) (HPC) 100 % of control

O=C(Nc1ccc(C2=NCCCN2)cc1)Nc1cccc(C(=O)Nc2ccc(C3=NCCCN3)cc2)c1
inactive: dose: 1.5 mg/kg/injection, schedule: Q01DX009 (ip), vehicle: saline with Tween-80 100 % of control | dose: 3.0 mg/kg/injection, schedule: Q01DX009 (ip), vehicle: saline with Tween-80 109 % of control | dose: 12.5 mg/kg/injection, schedule: Q04DX003 (ip), vehicle: saline with Tween-80 104 % of control | dose: 25.0 mg/kg/injection, schedule: Q04DX003 (ip), vehicle: saline with Tween-80 118 % of control | [10] 90 % of control | dose: 50.0 mg/kg/injection, schedule: Q04DX003 (ip), vehicle: saline with Tween-80 118 % of control
active: dose: 16.5 mg/kg/injection, schedule: Q01DX009 (ip), vehicle: saline with Tween-80 163 % of control

O=C(NN=c1c(=O)c2ccccc2c1=O)c1ccncc1
inactive: [5] 112 % of control | [6] 119 % of control | [7] 119 % of control

CNC(=O)Oc1ncccc1[N+](=O)[O-]
inactive: dose: 50.0 mg/kg/injection, schedule: Q01DX009 (ip), vehicle: saline 98 % of control and 117 % of control | dose: 100.0 mg/kg/injection, schedule: Q01DX009 (ip), vehicle: saline 107 % of control and 119 % of control | dose: 200.0 mg/kg/injection, schedule: Q01DX009 (ip), vehicle: saline 98 % of control and 88 % of control
